# Assay results taken from ChEMBL document CHEMBL2203035, “Synthesis and docking studies of novel antitumor benzimidazoles” (Bioorg Med Chem, 2012).
# Columns and labels:
# [1] = target: Urokinase plasminogen activator surface receptor (Homo sapiens, UniProt Q03405); assay: Binding affinity to uPAR
# [2] = test system: A549; assay: Cytotoxicity against human A549 cells after 72 hrs by alamar blue assay; assay type: functional, cell-based; conditions: A549, 72 h
# [3] = test system: Raji; assay: Inhibition of tumor promotion in human Raji cells assessed as TPA-induced Epstein-Barr virus early antigen activation at 500 mol ratio/TPA after 48 hrs by indirect immunofluorescence analysis relative to TPA alone; assay type: functional; parameters: scale not given: the % may be the effect or the level left
# [4] = test system: MCF7; assay: cells; conditions: Homo sapiens, MCF7, 48 h
# Description: Cytotoxicity against human MCF7 cells after 48 hrs by sulforhodamine B assay
# [5] = test system: Raji; assay: Inhibition of tumor promotion in human Raji cells assessed as TPA-induced Epstein-Barr virus early antigen activation at 10 mol ratio/TPA after 48 hrs by indirect immunofluorescence analysis relative to TPA alone; assay type: functional; parameters: scale not given: the % may be the effect or the level left
# [6] = test system: Raji; assay: Inhibition of tumor promotion in human Raji cells assessed as TPA-induced Epstein-Barr virus early antigen activation at 1000 mol ratio/TPA after 48 hrs by indirect immunofluorescence analysis relative to TPA alone; assay type: functional; parameters: scale not given: the % may be the effect or the level left
# [7] = test system: Raji; assay: Inhibition of tumor promotion in human Raji cells assessed as TPA-induced Epstein-Barr virus early antigen activation at 100 mol ratio/TPA after 48 hrs by indirect immunofluorescence analysis relative to TPA alone; assay type: functional; parameters: scale not given: the % may be the effect or the level left
# [8] = test system: MCF7; assay: Downregulation of uPA protein expression in human MCF7 cell extract at 0.35 uM after 48 hrs by ELISA (reference value: 1 1.4000 +/- 1.40 ng/ml); assay type: functional
# [9] = test system: A549; assay: Downregulation of uPA protein expression in human A549 cell extract at 0.137 uM after 48 hrs by ELISA; assay type: functional
# [10] = test system: A549; assay: Downregulation of uPA protein expression in human A549 cell extract at 0.137 uM after 48 hrs by ELISA (reference value: 11.0000 +/-1.60 ng/ml); assay type: functional
# [11] = test system: A549; assay: Downregulation of uPA protein expression in human A549 cell extract at 1.10 uM after 48 hrs by ELISA (reference value: 11.0000 +/-1.60 ng/ml); assay type: functional
# [12] = test system: A549; assay: Downregulation of uPA protein expression in human A549 cell extract at 1.10 uM after 48 hrs by ELISA; assay type: functional
# [13] = test system: MCF7; assay: Downregulation of uPA protein expression in human MCF7 cell extract at 0.087 uM after 48 hrs by ELISA (reference value: 1 1.4000 +/- 1.40 ng/ml); assay type: functional
# [14] = test system: A549; assay: Downregulation of uPA protein expression in human A549 cell extract at 0.275 uM after 48 hrs by ELISA; assay type: functional
# [15] = test system: A549; assay: Downregulation of uPA protein expression in human A549 cell extract at 0.55 uM after 48 hrs by ELISA (reference value: 11.0000 +/-1.60 ng/ml); assay type: functional
# [16] = test system: A549; assay: Downregulation of uPA protein expression in human A549 cell extract at 0.55 uM after 48 hrs by ELISA; assay type: functional
# [17] = test system: MCF7; assay: Downregulation of uPA protein expression in human MCF7 cell extract at 0.70 ug/well after 48 hrs by ELISA (reference value: 1 1.4000 +/- 1.40 ng/ml)
# [18] = test system: A549; assay: Downregulation of uPA protein expression in human A549 cell extract at 0.275 uM after 48 hrs by ELISA (reference value: 11.0000 +/-1.60 ng/ml); assay type: functional
# [19] = test system: MCF7; assay: Downregulation of uPA protein expression in human MCF7 cell extract at 0.175 uM after 48 hrs by ELISA (reference value: 1 1.4000 +/- 1.40 ng/ml); assay type: functional
# [20] = test system: MCF7; assay: Downregulation of uPA protein expression in human MCF7 cell extract at 0.60 uM after 48 hrs by ELISA (reference value: 1 1.4000 +/- 1.40 ng/ml); assay type: functional
# [21] = test system: MCF7; assay: Downregulation of uPA protein expression in human MCF7 cell extract at 0.15 uM after 48 hrs by ELISA (reference value: 1 1.4000 +/- 1.40 ng/ml); assay type: functional
# [22] = test system: MCF7; assay: Downregulation of uPA protein expression in human MCF7 cell extract at 0.30 uM after 48 hrs by ELISA (reference value: 1 1.4000 +/- 1.40 ng/ml); assay type: functional
# [23] = test system: MCF7; assay: Downregulation of uPA protein expression in human MCF7 cell extract at 0.075 uM after 48 hrs by ELISA (reference value: 1 1.4000 +/- 1.40 ng/ml); assay type: functional
# [24] = test system: A549; assay: Downregulation of uPA protein expression in human A549 cell extract at 0.20 uM after 48 hrs by ELISA (reference value: 11.0000 +/-1.60 ng/ml); assay type: functional
# [25] = test system: A549; assay: Downregulation of uPA protein expression in human A549 cell extract at 0.05 uM after 48 hrs by ELISA (reference value: 11.0000 +/-1.60 ng/ml); assay type: functional
# [26] = test system: A549; assay: Downregulation of uPA protein expression in human A549 cell extract at 0.10 uM after 48 hrs by ELISA (reference value: 11.0000 +/-1.60 ng/ml); assay type: functional
# [27] = test system: A549; assay: Downregulation of uPA protein expression in human A549 cell extract at 0.40 uM after 48 hrs by ELISA (reference value: 11.0000 +/-1.60 ng/ml); assay type: functional
# Urokinase plasminogen activator surface receptor, sequence (Q03405 whole entry): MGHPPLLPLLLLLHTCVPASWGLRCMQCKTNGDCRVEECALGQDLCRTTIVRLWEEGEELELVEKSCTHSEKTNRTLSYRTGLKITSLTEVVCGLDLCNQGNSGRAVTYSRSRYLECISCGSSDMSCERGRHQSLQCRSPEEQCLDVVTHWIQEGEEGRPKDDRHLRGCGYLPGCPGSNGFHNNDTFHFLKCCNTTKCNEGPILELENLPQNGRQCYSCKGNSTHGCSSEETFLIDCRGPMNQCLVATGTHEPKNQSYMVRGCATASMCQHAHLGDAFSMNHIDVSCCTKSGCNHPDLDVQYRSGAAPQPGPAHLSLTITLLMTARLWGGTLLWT
Structure (SMILES),Ki [1] [pM],IC50 [4] [µg/well],IC50 [2] [µM],Activity [3] [%],Activity [5] [%],Activity [6] [%],Activity [7] [%],further results
N#Cc1cc(-c2ccccc2)n(-c2cccc(Br)c2)c1N,4.11,–,13,–,–,–,–,–
CCOC(=O)Cn1c(CN2C3=Nc4ccccc4C(=O)NC3=Nc3ccccc32)nc2ccccc21,1.7,0.934,8.4,43.7,100,10.3,74.4,–
N#Cc1cc(-c2ccccc2)n(-c2ccc(Br)cc2)c1N,3.27,–,4.6,–,–,–,–,–
N#Cc1cc(-c2ccccc2)n(-c2ccc(Cl)cc2)c1N,3.29,–,7.7,–,–,–,–,–
N#Cc1cc(-c2ccccc2)n(-c2ccncc2)c1N,7.59,–,10.7,–,–,–,–,–
COc1cccc2c1C(=O)c1c(O)c3c(c(O)c1C2=O)C[C@@](O)(C(=O)CO)C[C@@H]3O[C@H]1C[C@H](N)[C@H](O)[C@H](C)O1 [DOXORUBICIN],–,–,–,–,–,–,–,Activity [20]: 2.75 ng/mL; Activity [21]: 3.2 ng/mL; Activity [22]: 3 ng/mL; Activity [23]: 3.4 ng/mL
N#Cc1cc(-c2ccccc2)n(-c2ccccn2)c1N,33.3,–,32,–,–,–,–,–
N#Cc1cc(-c2ccccc2)n(-c2nc3ccccc3[nH]2)c1N,3.02,1.28,12.1,49.6,100,19.7,83.5,–
O=C1NC2=Nc3ccccc3NC2=Nc2ccccc21,1330,1.39,13.2,54.6,100,22.6,86.3,–
CO[C@@]12[C@H](COC(N)=O)C3=C(C(=O)C(C)=C(N)C3=O)N1C[C@@H]1N[C@@H]12 [MITOMYCIN],–,–,–,–,–,–,–,Activity [24]: 2.6 ng/mL; Activity [25]: 4.3 ng/mL; Activity [26]: 3.3 ng/mL; Activity [27]: 2.4 ng/mL
CC1(C)CC[C@]2(C(=O)O)CC[C@]3(C)C(=CC[C@@H]4[C@@]5(C)CC[C@H](O)C(C)(C)[C@@H]5CC[C@]43C)[C@@H]2C1 [OLEANOLIC_ACID],–,–,–,30,100,12.7,80,–
N#CC(C#N)CC(=O)c1ccccc1,296,–,9.7,–,–,–,–,–
CC/C(=C(\c1ccccc1)c1ccc(OCCN(C)C)cc1)c1ccccc1 [TAMOXIFEN],–,1.82,–,–,–,–,–,–
Nc1nc2ccccc2[nH]c1=O,20800,–,9.1,46.3,100,12.6,78.1,–
N#Cc1cc(-c2ccccc2)n(-c2cccc(Cl)c2)c1N,2.27,–,8,–,–,–,–,–

# Now from value to compound, other results behind:
Ki [1] [pM],IC50 [4] [µg/well],Structure (SMILES),IC50 [2] [µM],Activity [3] [%],Activity [5] [%],Activity [6] [%],Activity [7] [%],further results
1,0.705,Nc1c(-c2nc3ccccc3[nH]2)cc(-c2ccccc2)n1-c1ccncc1,1.1,46.9,100,15.3,78.6,Activity [8]: 9 ng/mL; Activity [9]: 44%; Activity [10]: 6.2 ng/mL; Activity [11]: 2.7 ng/mL; Activity [12]: 75%; Activity [13]: 9.8 ng/mL; Activity [14]: 53%; Activity [15]: 4.8 ng/mL; Activity [16]: 56%; Activity [17]: 9.4 ng/mL; Activity [18]: 5.2 ng/mL; Activity [19]: 8.7 ng/mL
4.4,1.7,Nc1c(-c2nc3ccccc3[nH]2)cc(-c2ccccc2)n1-c1cccc(Cl)c1,7,48.3,100,17.8,80.1,–
1.53,1.62,Nc1c(-c2nc3ccccc3[nH]2)cc(-c2ccccc2)n1-c1nc2ccccc2[nH]1,7.7,48.2,100,16.3,80,–
4.45,0.934,Nc1c(-c2nc3ccccc3[nH]2)cc(-c2ccccc2)n1-c1ccc(Cl)cc1,9.9,50.3,100,20.1,85.6,–
11,0.82,Nc1c(-c2nc3ccccc3[nH]2)cc(-c2ccccc2)n1-c1ccc(Br)cc1,12,48,100,18.9,83.2,–
6.53,0.934,Nc1c(-c2nc3ccccc3[nH]2)cc(-c2ccccc2)n1-c1ccccn1,8,47.3,100,15.9,79.1,–
12,2.12,Nc1c(-c2nc3ccccc3[nH]2)cc(-c2ccccc2)n1-c1cccc(Br)c1,13.5,49.9,100,19.2,84,–
2.17,0.972,Nc1c(-c2nc3ccccc3[nH]2)cc(-c2ccccc2)n1Cc1nc2ccccc2[nH]1,5.1,48.3,100,18.7,82.6,–
6.36,1.66,O=C1NC2=Nc3ccccc3N(Cc3nc4ccccc4[nH]3)C2=Nc2ccccc21,8.5,53.1,100,20.5,85.6,–
